The values that follow come from patent US20160150792A1, “WATER PURIFICATION COMPOSITIONS AND APPLICATIONS FOR SAME” (priority 2011, published 2016).

The subject of the assay is mixture of E. coli and P. aeruginosa. As to the kind of experiment: Disinfection of contaminated surgical instruments and objects. The format is cell-based, E. coli (ATCC 11229) and P. aeruginosa (ATCC 15442). Particulars: immersion 30 minutes; instruments contaminated with 7.0×10^9 bacteria. The method, then:
Cultures: E. coli (ATCC11229) and P. aeruginosa (ATCC15442) from the American Type Culture Collection (ATCC) were grown in Tryptic Soy Broth (TSB) according to the instructions provided by ATCC.
Sterile surgical instruments (probes, scalpel handles, and forceps) and other objects were inoculated with 20 μL of the concentrated culture and allowed to dry for 30 minutes in a laminar flow hood. Contaminated surgical instruments were treated with SAFI (various copper or copper/zinc mixes at pH 3.2 or pH 0.2) by immersing the objects in 40 mL sterile water containing 1, 10, or 100 ppm SAFI for time periods of 30 minutes −22 hours. Comparison treatments included no treatment (control), boiling the instruments in water for 30 minutes, immersing the instruments in 40 mL of 70% EtOH for 30 minutes, or autoclaving the instruments at 15 lbs/in^2 at 121° C. for 20 minutes. […]
The ability of a solution of SAFI to disinfect contaminated surgical instruments was determined by contaminating forceps, scalpel handles, and probes with 20 uL of a concentrated mixture of E. coli and P. aeruginosa and incubating the contaminated instruments in a SAFI solution for 30 minutes. […] Bacteria present after overnight incubation were determined by standard plate counts. […]

SMILES strings stand for the structures.

For `CCO` [70% ethanol, ethanol], the “effectiveness in killing bacteria (comparison treatment)” value is recorded as “effective in killing bacteria”.
